These are literature values, as cited in US20050272717A1, “Treatment of aromatase inhibitor therapy-related osteoporosis” (priority 2004, published 2005).

The test system of one data set is bone. Particulars: preclinical studies.

Regarding `Cc1c(-c2ccc(O)cc2)n(Cc2ccc(OCCN3CCCCCC3)cc2)c2ccc(O)cc12` [bazedoxifene, 1-[4-(2-azepan-1-yl-ethoxy)-benzyl]-2-(4-hydroxy-phenyl)-3-methyl-1H-indol-5-ol], the compressive bone strength entry in the data set on bone was “improved”. In addition, in the data set on bone (compared with raloxifene), the histomorphometric profile entry was “superior to that of raloxifene”. Moreover, in the data set on breast cancer cells, the “estradiol-stimulated proliferation of breast cancer cells” value is “inhibits”.
